{"source": "PubChem BioAssay (NCI)", "test_in_all_cases": "growth of human tumour cells (NCI), 48 h", "key": {"NCI-H522 lung": {"tested_on": "NCI-H522 lung"}, "T-47D breast": {"tested_on": "T-47D breast"}, "BT-549 breast": {"tested_on": "BT-549 breast"}, "SR leukemia": {"tested_on": "SR leukemia"}, "DU-145 prostate": {"tested_on": "DU-145 prostate"}, "LXFL 529 NSCLC": {"tested_on": "LXFL 529 NSCLC"}, "DMS 114 small cell lung": {"tested_on": "DMS 114 small cell lung"}, "M19-MEL melanoma": {"tested_on": "M19-MEL melanoma"}, "DLD-1 colon": {"tested_on": "DLD-1 colon"}, "XF 498 CNS": {"tested_on": "XF 498 CNS"}, "SNB-78 CNS": {"tested_on": "SNB-78 CNS"}, "HOP-18 NSCLC": {"tested_on": "HOP-18 NSCLC"}, "DMS 273 small cell lung": {"tested_on": "DMS 273 small cell lung"}, "KM20L2 colon": {"tested_on": "KM20L2 colon"}}, "note": "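Protocol summary: plate cells (96-well), add compound at 5 concentrations, incubate 48 h, interpolate endpoints linearly. TGI: total growth inhibition.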"}
{"molecule": "CC1=C(C#N)C23C(=O)c4ccccc4C(O)=C2C(=O)C=CC3(O)N1", "note": "(stereo unspecified)", "values": [{"measurement": "TGI", "setting": "NCI-H522 lung", "result": 4.81, "unit": "µM"}, {"measurement": "TGI", "setting": "T-47D breast", "result": "> 100", "unit": "µM"}, {"measurement": "TGI", "setting": "BT-549 breast", "result": 3.38, "unit": "µM"}, {"measurement": "TGI", "setting": "SR leukemia", "result": 1.5, "unit": "µM"}, {"measurement": "TGI", "setting": "DU-145 prostate", "result": 7.69, "unit": "µM"}]}
{"molecule": "Cc1ccccc1[P+](C)(c1ccccc1C)c1ccccc1C", "values": [{"measurement": "TGI", "setting": "NCI-H522 lung", "result": 21.6, "unit": "µM"}, {"measurement": "TGI", "setting": "T-47D breast", "result": 12.9, "unit": "µM"}, {"measurement": "TGI", "setting": "BT-549 breast", "result": 63.1, "unit": "µM"}, {"measurement": "TGI", "setting": "DU-145 prostate", "result": "> 100", "unit": "µM"}]}
{"molecule": "CC(N)C(=O)OCN1C(=O)C2C3C=CC(C2C1=O)C1C2C(=O)N(COC(=O)C(C)N)C(=O)C2C31", "note": "(stereo unspecified)", "values": [{"measurement": "TGI", "setting": "LXFL 529 NSCLC", "result": 60.8, "unit": "µM"}, {"measurement": "TGI", "setting": "DMS 114 small cell lung", "result": 36.5, "unit": "µM"}, {"measurement": "TGI", "setting": "M19-MEL melanoma", "result": 40, "unit": "µM"}, {"measurement": "TGI", "setting": "DLD-1 colon", "result": 54.4, "unit": "µM"}, {"measurement": "TGI", "setting": "XF 498 CNS", "result": 47.5, "unit": "µM"}, {"measurement": "TGI", "setting": "SNB-78 CNS", "result": "> 100", "unit": "µM"}, {"measurement": "TGI", "setting": "HOP-18 NSCLC", "result": "> 100", "unit": "µM"}, {"measurement": "TGI", "setting": "DMS 273 small cell lung", "result": 36.7, "unit": "µM"}, {"measurement": "TGI", "setting": "SR leukemia", "result": 29.3, "unit": "µM"}, {"measurement": "TGI", "setting": "KM20L2 colon", "result": 72.2, "unit": "µM"}]}
{"molecule": "CNC1C(O)C(NC)C2OC3(O)C(=O)CC(C)OC3OC2C1O", "note": "(stereo unspecified)", "values": [{"measurement": "TGI", "setting": "NCI-H522 lung", "result": "> 100", "unit": "µM"}, {"measurement": "TGI", "setting": "T-47D breast", "result": "> 100", "unit": "µM"}, {"measurement": "TGI", "setting": "BT-549 breast", "result": "> 100", "unit": "µM"}, {"measurement": "TGI", "setting": "SR leukemia", "result": "> 100", "unit": "µM"}, {"measurement": "TGI", "setting": "DU-145 prostate", "result": "> 100", "unit": "µM"}]}
{"molecule": "Oc1cccc(-c2ccc3c4c2O[C@H]2c5[nH]c6ccccc6c5C[C@@]5(O)[C@@H](C3)N(CC3CC3)CC[C@]425)c1", "values": [{"measurement": "TGI", "setting": "BT-549 breast", "result": 23, "unit": "µM"}, {"measurement": "TGI", "setting": "DU-145 prostate", "result": 3.36, "unit": "µM"}]}
{"molecule": "CCN1C(=S)n2cccc2C1CC(=O)c1ccc(Cl)cc1", "note": "(stereo unspecified)", "values": [{"measurement": "TGI", "setting": "NCI-H522 lung", "result": "> 100", "unit": "µM"}, {"measurement": "TGI", "setting": "T-47D breast", "result": "> 100", "unit": "µM"}, {"measurement": "TGI", "setting": "BT-549 breast", "result": "> 100", "unit": "µM"}, {"measurement": "TGI", "setting": "SR leukemia", "result": "> 100", "unit": "µM"}, {"measurement": "TGI", "setting": "DU-145 prostate", "result": "> 100", "unit": "µM"}]}
{"molecule": "O=Nc1c(-c2c(O)[nH]c3ccccc23)[nH]c2ccccc12", "values": [{"measurement": "TGI", "setting": "NCI-H522 lung", "result": 20.9, "unit": "µM"}, {"measurement": "TGI", "setting": "T-47D breast", "result": "> 48.7", "unit": "µM"}, {"measurement": "TGI", "setting": "BT-549 breast", "result": 30, "unit": "µM"}, {"measurement": "TGI", "setting": "SR leukemia", "result": "> 100", "unit": "µM"}, {"measurement": "TGI", "setting": "DU-145 prostate", "result": 31, "unit": "µM"}]}
{"molecule": "C=C1C(=O)OC2/C=C(\\C)C3OC3/C=C(/C(=O)OC)C(O)C(OC(=O)C3(C)OC3C)C12", "note": "(stereo unspecified)", "values": [{"measurement": "TGI", "setting": "LXFL 529 NSCLC", "result": 2.8, "unit": "µM"}, {"measurement": "TGI", "setting": "DMS 114 small cell lung", "result": 1.94, "unit": "µM"}, {"measurement": "TGI", "setting": "DLD-1 colon", "result": 2.94, "unit": "µM"}, {"measurement": "TGI", "setting": "NCI-H522 lung", "result": 0.6, "unit": "µM"}, {"measurement": "TGI", "setting": "SNB-78 CNS", "result": 3.97, "unit": "µM"}, {"measurement": "TGI", "setting": "DMS 273 small cell lung", "result": 3.02, "unit": "µM"}, {"measurement": "TGI", "setting": "SR leukemia", "result": 3.05, "unit": "µM"}]}
{"molecule": "CN(C)CC1CCCC(CN2CCCCC2)C1=O", "note": "(stereo unspecified)", "values": [{"measurement": "TGI", "setting": "DMS 114 small cell lung", "result": "> 23.4", "unit": "µM"}, {"measurement": "TGI", "setting": "M19-MEL melanoma", "result": 34.7, "unit": "µM"}, {"measurement": "TGI", "setting": "DLD-1 colon", "result": 8.92, "unit": "µM"}, {"measurement": "TGI", "setting": "NCI-H522 lung", "result": 0.204, "unit": "µM"}, {"measurement": "TGI", "setting": "T-47D breast", "result": 4.85, "unit": "µM"}, {"measurement": "TGI", "setting": "SNB-78 CNS", "result": 23.9, "unit": "µM"}, {"measurement": "TGI", "setting": "HOP-18 NSCLC", "result": 4.71, "unit": "µM"}, {"measurement": "TGI", "setting": "DMS 273 small cell lung", "result": 54.9, "unit": "µM"}, {"measurement": "TGI", "setting": "BT-549 breast", "result": 28.7, "unit": "µM"}, {"measurement": "TGI", "setting": "SR leukemia", "result": "> 100", "unit": "µM"}, {"measurement": "TGI", "setting": "DU-145 prostate", "result": 32.5, "unit": "µM"}, {"measurement": "TGI", "setting": "KM20L2 colon", "result": 41.6, "unit": "µM"}]}
{"molecule": "C=CCc1c(C)nc(C)nc1N/N=C/C=C/c1ccccc1", "values": [{"measurement": "TGI", "setting": "NCI-H522 lung", "result": "> 100", "unit": "µM"}, {"measurement": "TGI", "setting": "T-47D breast", "result": 28, "unit": "µM"}, {"measurement": "TGI", "setting": "BT-549 breast", "result": 63.2, "unit": "µM"}, {"measurement": "TGI", "setting": "SR leukemia", "result": 57.3, "unit": "µM"}]}
{"molecule": "CC(C)OC(=O)Nc1cccc(Cl)c1", "values": [{"measurement": "TGI", "setting": "T-47D breast", "result": "> 100", "unit": "µM"}, {"measurement": "TGI", "setting": "BT-549 breast", "result": "> 100", "unit": "µM"}, {"measurement": "TGI", "setting": "SR leukemia", "result": "> 100", "unit": "µM"}, {"measurement": "TGI", "setting": "DU-145 prostate", "result": "> 100", "unit": "µM"}]}
{"molecule": "CC(=O)OCc1ccc2oc(=O)c(C(=O)Oc3cccc(Cl)c3)cc2c1", "values": [{"measurement": "TGI", "setting": "NCI-H522 lung", "result": "> 100", "unit": "µM"}, {"measurement": "TGI", "setting": "T-47D breast", "result": 41, "unit": "µM"}, {"measurement": "TGI", "setting": "BT-549 breast", "result": "> 100", "unit": "µM"}, {"measurement": "TGI", "setting": "SR leukemia", "result": "> 100", "unit": "µM"}, {"measurement": "TGI", "setting": "DU-145 prostate", "result": "> 100", "unit": "µM"}]}
{"molecule": "Cc1nc2c(O)cc3c4c(=O)n(C)c(=O)n(C)c4n(Cc4ccccc4)c3c2nc1C", "values": [{"measurement": "TGI", "setting": "SR leukemia", "result": 57.6, "unit": "µM"}, {"measurement": "TGI", "setting": "DU-145 prostate", "result": "> 100", "unit": "µM"}]}
{"molecule": "NC(=O)c1ccc(NS(=O)(=O)c2ccc(N)cc2)nc1", "values": [{"measurement": "TGI", "setting": "T-47D breast", "result": "> 100", "unit": "µM"}, {"measurement": "TGI", "setting": "BT-549 breast", "result": "> 100", "unit": "µM"}, {"measurement": "TGI", "setting": "DU-145 prostate", "result": "> 100", "unit": "µM"}]}
{"molecule": "CCCCC(C(=O)N/N=C/c1ccc([N+](=O)[O-])o1)C(=O)N/N=C/c1ccc([N+](=O)[O-])o1", "values": [{"measurement": "TGI", "setting": "T-47D breast", "result": 7.69, "unit": "µM"}, {"measurement": "TGI", "setting": "BT-549 breast", "result": 17.2, "unit": "µM"}, {"measurement": "TGI", "setting": "DU-145 prostate", "result": 42.9, "unit": "µM"}]}
